Where a name gives a salt, the structure may show the parent alone. ± gives the standard deviation of the averaged measurements.
Test system: HepaRG
Experiment: LDH release cytotoxicity, % of total lysis control; higher = more cytotoxic
Details: 48 h
Summary of the method: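 Percent cytotoxicity was scaled between on-plate vehicle and total lysis controls, then averaged over duplicate wells. The cells were single-lot HepaRG on collagen I-coated 96-well plates, exposed for 48 h to eight-point half-log test chemical series topping at 100 µM in serum-free induction medium with 0.5% DMSO. Total lysis wells got 0.1% Triton X, and LDH in 50 µL spent medium was read as resorufin fluorescence (CytoTox-ONE, Tecan Safire).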

With CCOC(=O)C(C)Oc1ccc(Oc2nc3ccc(Cl)cc3o2)cc1 (configuration not stated) [Fenoxaprop-ethyl] the LDH release cytotoxicity (0.03162 µM) was -2.02 ± 0.53%, the LDH release cytotoxicity (0.1 µM) was -2.51 ± 0.57% and the LDH release cytotoxicity (0.3162278 µM) was -2.8 ± 0.91%. For the same compound, the LDH release cytotoxicity (1 µM) was -2.59 ± 1%, the LDH release cytotoxicity (3.16228 µM) was -2.21 ± 0.26% and the LDH release cytotoxicity (10 µM) was -2.46 ± 0.87%. The LDH release cytotoxicity (31.6228 µM) was -1.44 ± 0.15% and the LDH release cytotoxicity (100 µM) was -1.21 ± 0.54%.

CCCCCCCCOC(=O)CCCCCCCCC(=O)OCCCCCCCC [Dioctyl sebacate] showed an LDH release cytotoxicity (0.03162 µM) of -0.979 ± 0.56%, an LDH release cytotoxicity (0.1 µM) of -1.87 ± 0.14% and an LDH release cytotoxicity (0.3162278 µM) of -1.9 ± 0.45%. The LDH release cytotoxicity (1 µM) was -1.13 ± 0.44%, the LDH release cytotoxicity (3.16228 µM) was -1.59 ± 0.11% and the LDH release cytotoxicity (10 µM) was -0.887 ± 0.82%. It also gave an LDH release cytotoxicity (31.6228 µM) of 5.14 ± 1.2% and an LDH release cytotoxicity (100 µM) of 68.74 ± 0.047%.

Compound Cc1ccc([N+](=O)[O-])cc1C [1,2-Dimethyl-4-nitrobenzene] has an LDH release cytotoxicity (0.03162 µM) of -1.16 ± 0.66%, an LDH release cytotoxicity (0.1 µM) of -1.81 ± 0.53% and an LDH release cytotoxicity (0.3162278 µM) of -1.44 ± 0.14%. For the same compound, the LDH release cytotoxicity (1 µM) was -1.1 ± 0.27%, the LDH release cytotoxicity (3.16228 µM) was -1.56 ± 0.13% and the LDH release cytotoxicity (10 µM) was -1.07 ± 0.013%. The LDH release cytotoxicity (31.6228 µM) was -0.524 ± 0.73% and the LDH release cytotoxicity (100 µM) was 0.459 ± 1.3%.

For CCCCCCCCCCCCCCOS(=O)(=O)O [Sodium myristyl sulfate], the LDH release cytotoxicity (0.03162 µM) was -2.12 ± 0.45%, the LDH release cytotoxicity (0.1 µM) was -2.09 ± 0.56% and the LDH release cytotoxicity (0.3162278 µM) was -2.4 ± 1.5%. For the same compound, the LDH release cytotoxicity (1 µM) was -2.13 ± 0.48%, the LDH release cytotoxicity (3.16228 µM) was -2.25 ± 0.37% and the LDH release cytotoxicity (10 µM) was -1.43 ± 0.37%. The LDH release cytotoxicity (31.6228 µM) was -1.69 ± 0.59% and the LDH release cytotoxicity (100 µM) was 12.5 ± 6.7%.

Work on COC(=O)c1ccc(O)cc1 [Methylparaben] yielded an LDH release cytotoxicity (0.03162 µM) of -1.06 ± 1.8%, an LDH release cytotoxicity (0.1 µM) of -1.64 ± 0.78% and an LDH release cytotoxicity (0.3162278 µM) of -1.84 ± 0.091%. It also gave an LDH release cytotoxicity (1 µM) of -0.442 ± 2.1%, an LDH release cytotoxicity (3.16228 µM) of -0.946 ± 0.85% and an LDH release cytotoxicity (10 µM) of -0.563 ± 0.36%. For the same compound, the LDH release cytotoxicity (31.6228 µM) was -0.515 ± 0.3% and the LDH release cytotoxicity (100 µM) was 0.108 ± 1.2%.

CCCOc1ccc(S(=O)(=O)N2CCN(CC)CC2)cc1-c1nc2c(CC)n(Cc3ccccn3)nc2c(=O)[nH]1 showed an LDH release cytotoxicity (0.03162 µM) of -0.95 ± 0.39%, an LDH release cytotoxicity (0.1 µM) of -1.66 ± 0.39% and an LDH release cytotoxicity (0.3162278 µM) of -1.8 ± 0.68%. It also gave an LDH release cytotoxicity (1 µM) of -1.82 ± 0.63%, an LDH release cytotoxicity (3.16228 µM) of -1.41 ± 0.12% and an LDH release cytotoxicity (10 µM) of -1.21 ± 0.066%. It also gave an LDH release cytotoxicity (31.6228 µM) of -0.893 ± 0.14% and an LDH release cytotoxicity (100 µM) of 5.44 ± 2.7%.

Compound Nc1cccc2c(N)cccc12 [1,5-Naphthalenediamine] has an LDH release cytotoxicity (0.03162 µM) of -0.228 ± 0.2%, an LDH release cytotoxicity (0.1 µM) of -1.23 ± 0.16% and an LDH release cytotoxicity (0.3162278 µM) of -1.58 ± 0.12%. It also gave an LDH release cytotoxicity (1 µM) of -2.39 ± 0.034%, an LDH release cytotoxicity (3.16228 µM) of -1.95 ± 0.3% and an LDH release cytotoxicity (10 µM) of -1.12 ± 0.45%. The LDH release cytotoxicity (31.6228 µM) was -1.51 ± 0.7% and the LDH release cytotoxicity (100 µM) was 0.44 ± 0.38%.

Compound O=C(Oc1ccc(Br)cc1)N1CCN2CCC1CC2 has an LDH release cytotoxicity (0.03162 µM) of -1.87 ± 0.45%, an LDH release cytotoxicity (0.1 µM) of -3.23 ± 2.2% and an LDH release cytotoxicity (0.3162278 µM) of -0.984 ± 0.16%. For the same compound, the LDH release cytotoxicity (1 µM) was -1.45 ± 0.27%, the LDH release cytotoxicity (3.16228 µM) was -1.43 ± 0.56% and the LDH release cytotoxicity (10 µM) was -1.29 ± 0.41%. For the same compound, the LDH release cytotoxicity (31.6228 µM) was -0.718 ± 0.41% and the LDH release cytotoxicity (100 µM) was 0.972 ± 0.95%.

For c1cc(-c2ccncc2)ccn1 [4,4'-Bipyridine], the LDH release cytotoxicity (0.03162 µM) was -0.85 ± 0.14%, the LDH release cytotoxicity (0.1 µM) was -1.15 ± 0.96% and the LDH release cytotoxicity (0.3162278 µM) was -0.941 ± 0.12%. The LDH release cytotoxicity (1 µM) was -1.18 ± 0.065%, the LDH release cytotoxicity (3.16228 µM) was -1.05 ± 0.039% and the LDH release cytotoxicity (10 µM) was 4.58 ± 0.24%. It also gave an LDH release cytotoxicity (31.6228 µM) of 24 ± 0.4% and an LDH release cytotoxicity (100 µM) of 18 ± 1.7%.

In the case of CCOc1cc(C(C)(C)C)ccc1C1COC(c2c(F)cccc2F)=N1 (configuration not stated) [Etoxazole], the LDH release cytotoxicity (0.020871 µM) is reported as -3.18 ± 0.75%, the LDH release cytotoxicity (0.066 µM) is reported as -1.79 ± 0.038% and the LDH release cytotoxicity (0.20871 µM) is reported as -2.56 ± 0.37%. The LDH release cytotoxicity (0.66 µM) was -3.05 ± 0.51%, the LDH release cytotoxicity (2.0871 µM) was -2.64 ± 0.86% and the LDH release cytotoxicity (6.6 µM) was -2.88 ± 0.43%. The LDH release cytotoxicity (20.871 µM) was -2.37 ± 0.075% and the LDH release cytotoxicity (66 µM) was 5.91 ± 0.27%.

With COP(=S)(OC)SCN1C(=O)c2ccccc2C1=O [Phosmet] the LDH release cytotoxicity (0.03162 µM) was -1.04 ± 0.14%, the LDH release cytotoxicity (0.1 µM) was -1.58 ± 0.89% and the LDH release cytotoxicity (0.3162278 µM) was -0.933 ± 0.42%. The LDH release cytotoxicity (1 µM) was -1.6 ± 0.93%, the LDH release cytotoxicity (3.16228 µM) was -1.56 ± 0.51% and the LDH release cytotoxicity (10 µM) was -1.14 ± 0.52%. The LDH release cytotoxicity (31.6228 µM) was -1.65 ± 0.99% and the LDH release cytotoxicity (100 µM) was 0.331 ± 0.7%.

COc1cc(S(=O)(=O)O)c(C)cc1N=Nc1c(O)ccc2cc(S(=O)(=O)O)ccc12 showed an LDH release cytotoxicity (0.03162 µM) of -0.0925 ± 0.66%, an LDH release cytotoxicity (0.1 µM) of -0.495 ± 0.4% and an LDH release cytotoxicity (0.3162278 µM) of -0.745 ± 0.75%. For the same compound, the LDH release cytotoxicity (1 µM) was -1.36 ± 1.1%, the LDH release cytotoxicity (3.16228 µM) was -1.42 ± 0.71% and the LDH release cytotoxicity (10 µM) was -1.6 ± 0.25%. It also gave an LDH release cytotoxicity (31.6228 µM) of -1.96 ± 0.065% and an LDH release cytotoxicity (100 µM) of -2.81 ± 0.42%.

CC#CC1(O)CCC2C3CCC4=CC(=O)CCC4=C3C(c3ccc(N(C)C)cc3)CC21C (configuration not stated) [Mifepristone] gave an LDH release cytotoxicity (0.03162 µM) of -0.549 ± 0.3%, an LDH release cytotoxicity (0.1 µM) of -1.11 ± 0.089% and an LDH release cytotoxicity (0.3162278 µM) of -0.633 ± 0.052%. It also gave an LDH release cytotoxicity (1 µM) of 2.47 ± 0.61%, an LDH release cytotoxicity (3.16228 µM) of 17.4 ± 0.87% and an LDH release cytotoxicity (10 µM) of 31.5 ± 1.6%. For the same compound, the LDH release cytotoxicity (31.6228 µM) was 42.2 ± 5.7% and the LDH release cytotoxicity (100 µM) was 60.9 ± 3%.

Compound CC(C)(c1ccccc1)c1ccc(O)c(C(C)(C)c2ccccc2)c1 [2,4-Bis(1-methyl-1-phenylethyl)phenol] has an LDH release cytotoxicity (0.03162 µM) of -0.358 ± 0.3%, an LDH release cytotoxicity (0.1 µM) of -1.13 ± 0.14% and an LDH release cytotoxicity (0.3162278 µM) of -0.577 ± 0.043%. The LDH release cytotoxicity (1 µM) was -1.2 ± 1.5%, the LDH release cytotoxicity (3.16228 µM) was -1.41 ± 0.08% and the LDH release cytotoxicity (10 µM) was -0.479 ± 0.49%. For the same compound, the LDH release cytotoxicity (31.6228 µM) was -0.0613 ± 0.39% and the LDH release cytotoxicity (100 µM) was 0.487 ± 0.24%.

CN=C1C=NN(c2cccc(C(F)(F)F)c2)C(=O)C1Cl (configuration not stated) [Norflurazon] was tested, and the LDH release cytotoxicity (0.03162 µM) was -0.275 ± 1.1%, the LDH release cytotoxicity (0.1 µM) was -1.08 ± 0.48% and the LDH release cytotoxicity (0.3162278 µM) was -0.0751 ± 2%. For the same compound, the LDH release cytotoxicity (1 µM) was 0.0859 ± 2.5%, the LDH release cytotoxicity (3.16228 µM) was -1.2 ± 0.27% and the LDH release cytotoxicity (10 µM) was -0.411 ± 0.49%. It also gave an LDH release cytotoxicity (31.6228 µM) of 0.0481 ± 1.5% and an LDH release cytotoxicity (100 µM) of 1.81 ± 1.8%.

With Cc1ccc(N)cc1 [4-Methylaniline] the LDH release cytotoxicity (0.03162 µM) was -1.74 ± 0.54%, the LDH release cytotoxicity (0.1 µM) was -1.26 ± 0.25% and the LDH release cytotoxicity (0.3162278 µM) was -1.71 ± 0.048%. The LDH release cytotoxicity (1 µM) was -2.15 ± 0.07%, the LDH release cytotoxicity (3.16228 µM) was -1.82 ± 0.86% and the LDH release cytotoxicity (10 µM) was -1.12 ± 0.11%. It also gave an LDH release cytotoxicity (31.6228 µM) of -1.47 ± 0.87% and an LDH release cytotoxicity (100 µM) of 0.2 ± 0.81%.

Compound CCOC(=O)C(C)(C)Oc1ccc(Cl)cc1 [Clofibrate] has an LDH release cytotoxicity (0.03162 µM) of -0.811 ± 0.59%, an LDH release cytotoxicity (0.1 µM) of -0.737 ± 0.38% and an LDH release cytotoxicity (0.3162278 µM) of -1.03 ± 0.3%. For the same compound, the LDH release cytotoxicity (1 µM) was -0.873 ± 1.4%, the LDH release cytotoxicity (3.16228 µM) was -1.56 ± 0.66% and the LDH release cytotoxicity (10 µM) was -0.987 ± 0.99%. The LDH release cytotoxicity (31.6228 µM) was -0.0208 ± 0.16% and the LDH release cytotoxicity (100 µM) was 1.51 ± 0.15%.

In the case of CCN(CC)c1ccccc1 [N,N-Diethylaniline], the LDH release cytotoxicity (0.03162 µM) is reported as -1.55 ± 0.24%, the LDH release cytotoxicity (0.1 µM) is reported as -1.44 ± 0.47% and the LDH release cytotoxicity (0.3162278 µM) is reported as -1.37 ± 0.23%. The LDH release cytotoxicity (1 µM) was -1.59 ± 0.4%, the LDH release cytotoxicity (3.16228 µM) was -0.839 ± 0.86% and the LDH release cytotoxicity (10 µM) was -1.07 ± 0.4%. The LDH release cytotoxicity (31.6228 µM) was -0.362 ± 0.47% and the LDH release cytotoxicity (100 µM) was 0.493 ± 0.011%.

In the case of CCCC(=O)O [Butanoic acid], the LDH release cytotoxicity (0.03162 µM) is reported as 0.168 ± 0.2%, the LDH release cytotoxicity (0.1 µM) is reported as -0.77 ± 0.36% and the LDH release cytotoxicity (0.3162278 µM) is reported as -0.76 ± 0.38%. It also gave an LDH release cytotoxicity (1 µM) of -1.47 ± 0.67%, an LDH release cytotoxicity (3.16228 µM) of -0.676 ± 0.53% and an LDH release cytotoxicity (10 µM) of -0.93 ± 0.85%. It also gave an LDH release cytotoxicity (31.6228 µM) of -0.26 ± 0.0066% and an LDH release cytotoxicity (100 µM) of -0.235 ± 0.085%.

— the supplement of paper PMC7840683
